Earlier results, collected in patent US20210244680A1, “WEARABLE LIPOSOMAL CANNABIDIOL TRANSDERMAL PATCH” (priority 2020, published 2021).

Test system: rats with arthritis
Conditions: topical gel containing CBD applied to rats with arthritis for 4 days

**Q.** Which results are given for `C=C(C)[C@@H]1CCC(C)=C[C@H]1c1c(O)cc(CCCCC)cc1O` [CBD, Cannabidiol]?
**A.** inflammation and signs of pain: significant drop in inflammation and signs of pain; side effects: without additional side effects
